# Assays:
# CcrZ (YtmP) [1] = target: T1, CcrZ (YtmP) (Bacillus subtilis, UniProt C0SPC1); experiment: ADP-Glo ATPase assay (proxy for kinase activity); type: biochemical; settings: 0.1 mM ATP, 37 °C, 30 min, product not identified
# T1 construct: full length, 6xHis-SUMO tag cleaved by SUMO protease, expressed in E. coli; monomer ~30 kDa; selenomethionine derivative for the crystal
# T1 sequence (C0SPC1 1-269): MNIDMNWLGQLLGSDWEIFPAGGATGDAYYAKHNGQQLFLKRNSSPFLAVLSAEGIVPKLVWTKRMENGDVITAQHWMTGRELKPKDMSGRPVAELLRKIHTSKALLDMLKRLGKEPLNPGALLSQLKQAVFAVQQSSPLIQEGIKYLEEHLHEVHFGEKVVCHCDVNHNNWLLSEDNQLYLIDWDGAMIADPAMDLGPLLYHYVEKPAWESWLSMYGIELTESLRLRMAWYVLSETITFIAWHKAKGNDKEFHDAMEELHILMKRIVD
# CcrZ (YtmP) [2] = target: T1, CcrZ (YtmP); experiment: X-ray crystallography, SAD, […] Å; type: binding; settings: selenomethionine derivative; pH 5.84, PEG 6000, 1 M LiCl, MgCl2 and D-ribose added but not seen; adenine in ATP pocket, phosphates turned to solvent (non-catalytic pose)
# LicA = target: T2, LicA (Streptococcus pneumoniae, UniProt Q8DPI4); experiment: ADP-Glo ATPase assay (proxy for kinase activity); type: biochemical; settings: 1.25 mM choline, 0.1 mM ATP, 37 °C, 30 min
# T2 construct: gene pck; gene codon optimized for B. subtilis, pE-SUMO-kan vector, SUMO tag cleaved, expressed in E. coli BL21
# T2 sequence (Q8DPI4 entry or part of it): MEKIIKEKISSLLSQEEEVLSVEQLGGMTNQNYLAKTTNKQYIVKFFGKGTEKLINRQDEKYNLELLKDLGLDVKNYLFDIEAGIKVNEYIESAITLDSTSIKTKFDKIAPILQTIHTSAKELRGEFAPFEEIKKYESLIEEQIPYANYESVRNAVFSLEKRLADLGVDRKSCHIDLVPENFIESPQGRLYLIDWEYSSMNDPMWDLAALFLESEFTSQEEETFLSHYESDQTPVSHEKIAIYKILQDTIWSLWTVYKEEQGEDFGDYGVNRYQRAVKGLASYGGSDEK
smiles,measurement,setting,value
OC[C@H]1OC(O)C[C@@H]1O (stereo partly drawn) [2-deoxy-D-ribose],ADP-Glo ATPase assay (proxy for kinase activity),CcrZ (YtmP) [1]; 5 mM 2-deoxy-ribose,CcrZ ATPase activity was stimulated in the presence of D-ribose and 2-deoxy-D-ribose
Nc1ncnc2c1ncn2[C@@H]1O[C@H](COP(=O)(O)OP(=O)(O)NP(=O)(O)O)[C@@H](O)[C@H]1O [AMP-PNP],"X-ray crystallography, SAD, 2.6 Å",CcrZ (YtmP) [2],we solved the crystal structure of B. subtilis CcrZ bound to AMP-PNP
OC1OC[C@@H](O)[C@@H](O)[C@H]1O (stereo partly drawn) [D-ribose],ADP-Glo ATPase assay (proxy for kinase activity),CcrZ (YtmP) [1]; 5 mM D-ribose,CcrZ ATPase activity was stimulated in the presence of D-ribose and 2-deoxy-D-ribose
C[N+](C)(C)CCO [choline],ADP-Glo ATPase assay (proxy for kinase activity),LicA,CcrZ does not have activity on choline while LicA shows robust activity

# From publication PMC9135335, “Structure and kinase activity of bacterial cell cycle regulator CcrZ” (PLoS Genetics, 2022)
